# Test results reported in patent US8753666B2, “Punctal plugs and methods of delivering therapeutic agents” (Alcon Research, Ltd., priority 2007, dated 2014).
# Test: Release of AL-6598 from silicone dies of three sizes in PBS at 37° C.
# Type: physicochemical
# Conditions: silicone die containing 10% AL-6598, 10x10x1 mm, 10x5x1 mm and 5x5x1 mm, FIG. 8
# Method: To study the effect of surface area on the release of prostaglandin from a silicone matrix, prostaglandin release from silicone dies of three different sizes was measured. The largest silicone die measured 10 mm×10 mm×1 mm. A ½ size device (10 mm×5 mm×1 mm) and a ¼ size device (5 mm×5 mm×1 mm) were also used in this study. Each silicone die contained 10% AL-6598, which is a DP class prostaglandin analogue. The silicone die were placed in phosphate buffered saline (PBS) at 37° C. and the amount of AL-6598 released was measured.
smiles,measurement,value
CC(C)OC(=O)COC/C=C\C[C@@H]1[C@@H](CC[C@@H](O)C2CCCCC2)[C@H](O)C[C@H]1Cl [AL-6598],release of AL-6598 from silicone die (effect of surface area),dependent on the size of the silicone die with the larger surface area resulting in the more rapid drug release
